Results: the NIST ThermoML archive (doi:10.1021/je060271a)

Conditions: 303.16 K, Liquid, Vibrating tube method

CCCC(=O)OCC(COC(=O)CCC)(COC(=O)CCC)COC(=O)CCC [pentaerythritol tetrabutyrate]
Conditions | mass density [kg/m3]
218.9 kPa | 1042.3
232.4 kPa | 1042.3
246.9 kPa | 1042.3
262 kPa | 1042.5
324.9 kPa | 1042.3
472.3 kPa | 1042.4
544.7 kPa | 1042.5
563.5 kPa | 1042.5
587.1 kPa | 1042.5
607.3 kPa | 1042.4
629 kPa | 1042.6
656.4 kPa | 1042.6
678.3 kPa | 1042.6
696.6 kPa | 1042.6
718.1 kPa | 1042.7
737.2 kPa | 1042.6
757 kPa | 1042.6
776.8 kPa | 1042.6
796 kPa | 1042.7
818.2 kPa | 1042.7
836.3 kPa | 1042.7
853.6 kPa | 1042.7
873.1 kPa | 1042.8
890.5 kPa | 1042.7
907.8 kPa | 1042.7
929.5 kPa | 1042.8
947.9 kPa | 1042.7
966.4 kPa | 1042.8
985.3 kPa | 1042.9
1007.9 kPa | 1042.8
1026.6 kPa | 1042.8
1044.5 kPa | 1042.8
1062.2 kPa | 1042.9
1083.2 kPa | 1043
1101 kPa | 1042.8
1119.2 kPa | 1042.9
1141.3 kPa | 1042.9
1160.5 kPa | 1042.9
1180.3 kPa | 1042.9
1203.2 kPa | 1042.8
1223.6 kPa | 1042.8
1243.7 kPa | 1043
1290.1 kPa | 1043
1358.8 kPa | 1043.1
1379.7 kPa | 1043
1401.5 kPa | 1043
1428.1 kPa | 1043.1
1450.3 kPa | 1043.1
1473.3 kPa | 1043.1
1501.7 kPa | 1043.2
1526.2 kPa | 1043.1
1550.9 kPa | 1043.1
1583.5 kPa | 1043.2
1604.5 kPa | 1043.2
1630.2 kPa | 1043.2
1662.3 kPa | 1043.2
1689.4 kPa | 1043.3
1717.5 kPa | 1043.3
1751.5 kPa | 1043.3
1780.2 kPa | 1043.3
1810 kPa | 1043.3
1846.1 kPa | 1043.4
1877 kPa | 1043.3
1908.8 kPa | 1043.5
1942.4 kPa | 1043.5
1983.9 kPa | 1043.5
2011.5 kPa | 1043.6
2053.9 kPa | 1043.4
2086.5 kPa | 1043.6
2109.2 kPa | 1043.5
2134.7 kPa | 1043.5
2155.2 kPa | 1043.4
2176 kPa | 1043.6
2200.7 kPa | 1043.6
2220.8 kPa | 1043.6
2241.1 kPa | 1043.6
2266.1 kPa | 1043.6
2286.5 kPa | 1043.6
2308 kPa | 1043.7
2333 kPa | 1043.7
2354.7 kPa | 1043.7
2376.6 kPa | 1043.7
2398.4 kPa | 1043.7
2422.9 kPa | 1043.8
2443.3 kPa | 1043.9
2464.3 kPa | 1043.6
2488.8 kPa | 1043.8
2509.4 kPa | 1043.8
2530.2 kPa | 1043.8
2554.7 kPa | 1043.7
2576.2 kPa | 1043.9
2597.2 kPa | 1043.9
2618.2 kPa | 1043.9
2643 kPa | 1043.9
2663.8 kPa | 1044
2685.1 kPa | 1043.9
2711.1 kPa | 1044
2732.8 kPa | 1044
2754.8 kPa | 1044
2781 kPa | 1043.9
2802.9 kPa | 1044
2824.7 kPa | 1044
2874.3 kPa | 1044.1
2897.5 kPa | 1044
2943.5 kPa | 1044.1
2971 kPa | 1044.1
2993.1 kPa | 1044.1
3014.9 kPa | 1044.1
3041.8 kPa | 1044.2
3063.6 kPa | 1044.2
3085.8 kPa | 1044.2
3108.7 kPa | 1044.3
3136.3 kPa | 1044.2
3159.3 kPa | 1044.2
3182.9 kPa | 1044.2
3207 kPa | 1044.3
3235.1 kPa | 1044.3
3258.3 kPa | 1044.2
3282.9 kPa | 1044.4
3311.7 kPa | 1044.3
3336.1 kPa | 1044.3
3361.2 kPa | 1044.5
3386.4 kPa | 1044.3
3416 kPa | 1044.5
3440.9 kPa | 1044.4
3466.4 kPa | 1044.4
3492.4 kPa | 1044.4
3523.8 kPa | 1044.5
3549.8 kPa | 1044.5
3576.6 kPa | 1044.5
3603.3 kPa | 1044.5
3635.4 kPa | 1044.6
3661.7 kPa | 1044.6
3688.4 kPa | 1044.7
3710.9 kPa | 1044.6
3733.8 kPa | 1044.6
3756.6 kPa | 1044.6
3784.2 kPa | 1044.7
3807.4 kPa | 1044.6
3831.5 kPa | 1044.7
3857.6 kPa | 1044.7
3881.3 kPa | 1044.7
3909.9 kPa | 1044.8
3931.4 kPa | 1044.7
3952.7 kPa | 1044.7
3974.1 kPa | 1044.8
